Source: article PMC8773446, “Comparative Analysis of Three Trypanosomatid Catalases of Different Origin” (Antioxidants, 2021)

Key:
Conditions in all cases: 15 mM H2O2, 50 mM potassium phosphate pH 7, 1 min preincubation; read-out: 3-AT IC50
L. pyrrhocoris catalase = L. pyrrhocoris catalase (Leptomonas pyrrhocoris, UniProt A0A0M9FX30); assay: biochemical
Experimental: (§1) The enzymatic inhibition was measured with 15 mM H2O2 and 50 mM potassium phosphate, pH 7. The enzyme was incubated with different concentrations of inhibitors (KCN or 3-amino-1,2,4-triazole, hereafter denoted as 3-AT, both from MilliporeSigma) for one minute, then the substrate was added and the residual activity was measured at 240 nm for 2 min [56]. All measurements were performed in triplicate.

[1] = target: V. ingenoplastis catalase; format: biochemical, Vickermania ingenoplastis
Experimental: as §1

[2] = target: Blastocrithidia sp. catalase; format: biochemical
Experimental: as §1

Sequence of L. pyrrhocoris catalase (A0A0M9FX30 entry or part of it): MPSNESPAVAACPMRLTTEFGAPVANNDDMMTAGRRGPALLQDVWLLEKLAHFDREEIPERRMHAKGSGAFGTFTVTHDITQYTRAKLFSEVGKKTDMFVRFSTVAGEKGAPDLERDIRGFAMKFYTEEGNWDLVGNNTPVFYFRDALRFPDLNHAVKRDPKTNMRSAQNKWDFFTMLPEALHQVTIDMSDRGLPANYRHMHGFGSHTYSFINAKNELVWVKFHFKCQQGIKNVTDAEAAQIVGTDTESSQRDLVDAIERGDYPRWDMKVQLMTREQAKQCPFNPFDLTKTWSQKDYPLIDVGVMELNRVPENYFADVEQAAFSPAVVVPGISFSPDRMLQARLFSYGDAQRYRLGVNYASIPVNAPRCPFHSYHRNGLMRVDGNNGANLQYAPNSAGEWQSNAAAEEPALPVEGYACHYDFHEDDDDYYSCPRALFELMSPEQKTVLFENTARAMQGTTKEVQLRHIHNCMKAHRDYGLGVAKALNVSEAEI

Nc1nc[nH]n1 [3-AT, 3-amino-1,2,4-triazole]
IC50 (L. pyrrhocoris catalase): 10.4 mM | IC50 [1]: 11.4 mM | IC50 [2]: 15.6 mM
